Measurements taken from patent publication US6573076B1, “Gene, group of genes, and novel β-glucosidase” (Ajinomoto Co., Inc., priority 1997, dated 2003).
Like-named read-outs stand apart in the source and are kept apart here.

Legend:
[1] = molecular target: T1, β-glucosidase (G3ase) (Komagataeibacter sucrofermentans, UniProt O24749); experiment: Reactivity of G3ase with cellulosic substrates (glucose produced); type: biochemical, Acetobacter xylinum subsp. sucrofermentans BPR 2001
[2] = molecular target: T1, β-glucosidase (G3ase); type: biochemical, Acetobacter xylinum subsp. sucrofermentans BPR 2001
[3] = molecular target: T1, β-glucosidase (G3ase); experiment: Effect of metal ions and chemical agents on β-glucosidase (G3ase) activity; type: biochemical, Acetobacter xylinum subsp. sucrofermentans BPR 2001; settings: for activity at 1000 µM: read-out: Relative activity (%)
Procedure: After reaction at 30° C. for 2 hr, a reaction solution (300 μl) of a glucose-measuring kit (Glucose CII test Wako: Wako Pure Chemical Industries, Ltd.) was added to the mixture, and reacted for 15 min at a room temperature, followed by the determination of an amount of glucose based on absorbance at 505 nm.

[4] = molecular target: T1, β-glucosidase (G3ase); experiment: Inhibition constants of G3ase inhibitors; type: biochemical, Acetobacter xylinum subsp. sucrofermentans BPR 2001
[5] = substrate: OC[C@H]1O[C@@H](O[C@H]2[C@H](O)[C@@H](O)[C@H](O[C@H]3[C@H](O)[C@@H](O)C(O)O[C@@H]3CO)O[C@@H]2CO)[C@H](O)[C@@H](O)[C@@H]1O; experiment: purified protein, by the assay type; settings: other: substrate of G3ase
[6] = substrate: OC[C@H]1O[C@@H](O[C@H]2[C@H](O)[C@@H](O)[C@H](O[C@H]3[C@H](O)[C@@H](O)[C@H](O[C@H]4[C@H](O)[C@@H](O)[C@H](O[C@H]5[C@H](O)[C@@H](O)[C@H](O[C@H]6[C@H](O)[C@@H](O)C(O)O[C@@H]6CO)O[C@@H]5CO)O[C@@H]4CO)O[C@@H]3CO)O[C@@H]2CO)[C@H](O)[C@@H](O)[C@@H]1O; experiment: purified protein, by the assay type; settings: other: substrate of G3ase
[7] = substrate: OC[C@H]1O[C@@H](O[C@H]2[C@H](O)[C@@H](O)[C@H](O[C@H]3[C@H](O)[C@@H](O)[C@H](O[C@H]4[C@H](O)[C@@H](O)C(O)O[C@@H]4CO)O[C@@H]3CO)O[C@@H]2CO)[C@H](O)[C@@H](O)[C@@H]1O; experiment: purified protein, by the assay type; settings: other: substrate of G3ase
[8] = substrate: OC[C@H]1O[C@@H](O[C@H]2[C@H](O)[C@@H](O)[C@H](O[C@H]3[C@H](O)[C@@H](O)[C@H](O[C@H]4[C@H](O)[C@@H](O)[C@H](O[C@H]5[C@H](O)[C@@H](O)C(O)O[C@@H]5CO)O[C@@H]4CO)O[C@@H]3CO)O[C@@H]2CO)[C@H](O)[C@@H](O)[C@@H]1O; experiment: purified protein, by the assay type; type: biochemical, Acetobacter xylinum subsp. sucrofermentans BPR 2001; settings: other: substrate of G3ase
[9] = compound 1 mM, non-added sample = 100%
[10] = metal ions and chemical agents 1 mM

OC[C@H]1O[C@@H](O[C@H]2[C@H](O)[C@@H](O)[C@H](O[C@H]3[C@H](O)[C@@H](O)[C@H](O[C@H]4[C@H](O)[C@@H](O)[C@H](O[C@H]5[C@H](O)[C@@H](O)[C@H](O[C@H]6[C@H](O)[C@@H](O)C(O)O[C@@H]6CO)O[C@@H]5CO)O[C@@H]4CO)O[C@@H]3CO)O[C@@H]2CO)[C@H](O)[C@@H](O)[C@@H]1O (some centres unmarked) [G6, cellohexaose]
percent ratio of produced glucose against total substrate added ([1]; reaction time 2 hr): 24.3% | percent ratio of produced glucose against total substrate added ([1]; reaction time 24 hr): 28.2%

cellobiose [G2]
percent ratio of produced glucose against total substrate added ([1]; reaction time 2 hr): 0.4% | percent ratio of produced glucose against total substrate added ([1]; reaction time 24 hr): 5.2% | degrading activity of G3ase compared to the other cellooligosaccharides (in words) [2]: very low | ko (molecular activity) ([2]; substrate of G3ase): 3.8 s⁻¹

OC[C@H]1O[C@@H](O[C@H]2[C@H](O)[C@@H](O)[C@H](O[C@H]3[C@H](O)[C@@H](O)C(O)O[C@@H]3CO)O[C@@H]2CO)[C@H](O)[C@@H](O)[C@@H]1O (some centres unmarked) [G3, cellotriose]
percent ratio of produced glucose against total substrate added ([1]; reaction time 2 hr): 13.1% | percent ratio of produced glucose against total substrate added ([1]; reaction time 24 hr): 17.5%

[Cl][Hg][Cl] [HgCl2]
Relative activity (%) [3, 9]: 85.5%

O=S(=O)([O-])[O-].[Fe+2] [FeSO4]
Relative activity (%) [3, 9]: 91.6%

O=S(=O)([O-])[O-].[Mg+2] [MgSO4]
Relative activity (%) [3, 9]: 95.2%

O=C(O)CI [IAA, iodo acetate]
Relative activity (%) [3, 9]: 126.5% | Effect on β-glucosidase (G3ase) activity (in words) [3, 10]: did not affect it adversely

O[C@H]1[C@H](O)[C@@H](O)[C@@H]2O[C@@H]2[C@@H]1O (relative stereo) [Conduritol-βepoxide]
Ki [4]: 700 µM | Type of inhibition [4]: Competitive | Type of inhibition ([4]; listed as conduritol-β epoxide): competitively inhibited

O=C1CCC(=O)N1Br [NBS, N-bromosuccinimide]
activity at 1000 µM [3, 9]: 0% | Effect on β-glucosidase (G3ase) activity (in words) [3, 10]: completely inactivated

O=C1O[C@H](CO)[C@@H](O)[C@H](O)[C@H]1O [Glucono-δ-lactone]
Ki [4]: 760 µM | Type of inhibition [4]: Competitive | Type of inhibition ([4]; listed as glucon-o-δ-lactone): competitively inhibited

CCCCCCCCCCCCOS(=O)(=O)[O-].[Na+] [SDS, sodium dodecyl sulfate]
activity at 1000 µM [3, 9]: 31.3%

OCCS [2ME, 2-mercaptoethanol]
Relative activity (%) [3, 9]: 106% | Effect on β-glucosidase (G3ase) activity (in words) [3, 10]: did not affect it adversely

O=C(O)CN(CCN(CC(=O)O)CC(=O)O)CC(=O)O [EDTA, ethylene diamine tetra acetate]
Effect on β-glucosidase (G3ase) activity (in words) [3]: did not affect it adversely | Relative activity (%) [3]: 100%

O=S(=O)([O-])[O-].[Zn+2] [ZnSO4]
Relative activity (%) [3, 9]: 90.4%

O=S(=O)([O-])[O-].[Mn+2] [MnSO4]
Relative activity (%) [3, 9]: 114.5%

[Ca+2].[Cl-].[Cl-] [CaCl2]
Relative activity (%) [3, 9]: 100%

O=S(=O)([O-])[O-].[Cu+2] [CuSO4]
Relative activity (%) [3, 9]: 115.7%

B1: β-glucosidase (G3ase) (Komagataeibacter sucrofermentans) (protein)
chain: RHAHDGGGDQADARARQVLASMSLEDKMSLLFSVDGGGFNGSVAPPGGLGSAAYLRAPQGSGLPDLQISDAGLGVRNPAHIRRNGEAVSLPSGQSTASTWDMDMARQAGVMIGREAWQSGFNILLGGGADLTRDPRGGRNFEYAGEDPLQTGRMVGSTIAGVQSQHVISTLKHYAMNDLETSRMTMSADIDPVAMRESDLLGFEIALETGHPGAVMCSYNRVNDLYACENPYLLNKTLKQDWHYPGFVMSDWGATHSSARAALAGLDQESAGDHTDARPYFRTLLAADVKAGRVPEARINDMAERVVRALFAAGLVDHPAQRGPLDVVTDTLVAQKDEEEGAVLLRNQGNILPLSPTARIAVIGGHADAGVISGGGSSQVDPIGGEAVKGPGKKEWPGDPVYFPSSPLKAMQAEAPGARITYDPGTSIASAVRAARAADVVVVYATQFTFEGMDAPSMHLDDNADALITAVAAANPRTVVVMETGDPVLMPWNSSVAGVLEAWFPGSGGGPAIARLLFGKVAPSGHLTMTFPQAESQLAHPDIAGVTADNVFEMQFHTDQELVYDEGSDVGYRWFDRNHFKPLYPFGYGLTYTTFSTDGLKVTERHGQVTATFNVHNTGTRAGVDVPQVYVGLPDGGARRLAGWQRISLAPGESRQVSVQLEPRLLAHFDGKHDRWSVPSGTFRVWLASCATDDSQQTTMHLHGRTMAP
Km [5]: 3.73 mM | kcat [5]: 29.8 s⁻¹ | Km [6]: 1.31 mM | kcat [6]: 31.0 s⁻¹ | Km [7]: 2.10 mM | kcat [7]: 38.9 s⁻¹ | Km [8]: 1.49 mM | kcat [8]: 32.1 s⁻¹
